Reference: patent US10800782B2, “Inhibitors of cellular metabolic processes” (Agios Pharmaceuticals, Inc., priority 2016, dated 2020)

target: T1, MAT2A (Homo sapiens, UniProt P31153); experiment: MAT2A biochemical assay (colorimetric inorganic phosphate detection, PiColorLock); conditions: recombinant His6-tagged MAT2A 1 μg/ml; 60 minutes preincubation at 25° C.; L-Met 80 μM, ATP 100 μM; 60 minutes reaction; read at 623 nm; read-out: MAT2A Inhibition Score
T1 construct: His6; made in house; host or cells: SF9 insect cells
T1 sequence (P31153 whole entry): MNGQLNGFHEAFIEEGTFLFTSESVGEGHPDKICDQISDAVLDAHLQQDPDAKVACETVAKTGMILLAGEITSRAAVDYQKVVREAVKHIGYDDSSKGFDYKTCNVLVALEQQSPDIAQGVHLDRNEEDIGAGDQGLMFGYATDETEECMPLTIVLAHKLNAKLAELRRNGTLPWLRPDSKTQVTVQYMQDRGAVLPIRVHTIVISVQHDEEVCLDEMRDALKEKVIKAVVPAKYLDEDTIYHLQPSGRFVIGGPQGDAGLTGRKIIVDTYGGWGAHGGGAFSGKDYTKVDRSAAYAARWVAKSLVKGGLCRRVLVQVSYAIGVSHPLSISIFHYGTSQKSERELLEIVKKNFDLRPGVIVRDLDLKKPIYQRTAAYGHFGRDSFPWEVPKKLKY
How it was run: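 His6-tagged human MAT2A (SF9-expressed, 1 μg/ml) converting L-Met and ATP to SAM in Tris pH 8.0, 50 mM KCl, 15 mM MgCl2, 300 uM EDTA, 0.005% BSA; 60 min at room temperature. Released phosphate detected colorimetrically with malachite green phosphomolybdate. Ten-point, three-fold compound dilution series.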

Row | SMILES | IC50 [µM]
1 | COc1ccc(-c2c(C)[nH]c3c(C4=CCCOC4)c(-c4ccccc4)nn3c2=O)cc1 [Compound 219, 3-(5,6-dihydro-2H-pyran-3-yl)-6-(4-methoxyphenyl)-5-methyl-2-phenylpyrazolo[1,5-a]pyrimidin-7(4H)-one] | < 0.1
2 | COc1ccc(-c2c(Nc3ccnc(OC)n3)[nH]c3c(C4=CCCCC4)c(-c4ccccc4)nn3c2=O)cc1 [Compound 156, 3-cyclohexenyl-6-(4-methoxyphenyl)-5-(2-methoxypyrimidin-4-ylamino)-2-phenyl-pyrazolo[1,5-a]pyrimidin-7(4H)-one] | < 0.1
3 | COc1ccc(-c2c(Nc3ncnc(O)n3)[nH]c3c(-c4ccccc4)c(-c4ccccc4)nn3c2=O)cc1 [Compound 136, 5-((4-hydroxy-1,3,5-triazin-2-yl)amino)-6-(4-methoxyphenyl)-2,3-diphenylpyrazolo[1,5-a]pyrimidin-7(4H)-one] | < 0.1
4 | O=c1c(-c2ccc3ncccc3c2)c(Nc2cc[nH]n2)[nH]c2c(-c3ccccc3)c(-c3ccccc3)nn12 [Compound 187, 5-((1H-pyrazol-3-yl)amino)-2,3-diphenyl-6-(quinolin-6-yl)pyrazolo[1,5-a]pyrimidin-7(4H)-one] | < 0.1
5 | Cc1[nH]c2c(-c3ccccc3)c(-c3ccccc3)nn2c(=O)c1-c1ccc2nc(C(=O)O)ccc2c1 [Compound 246, 6-(5-methyl-7-oxo-2,3-diphenyl-4,7-dihydropyrazolo[1,5-a]pyrimidin-6-yl) quinoline-2-carboxylic Acid] | < 0.1
6 | CC(=O)NCc1[nH]c2c(-c3ccccc3)c(-c3ccccc3)nn2c(=O)c1-c1ccc2ncccc2c1 [Compound 228, N-((7-oxo-2,3-diphenyl-6-(quinolin-6-yl)-4,7-dihydropyrazolo[1,5-a]pyrimidin-5-yl)methyl)acetamide] | < 0.1
7 | O=c1c(-c2ccc3ncccc3c2)c(Cn2cccn2)[nH]c2c(-c3ccccc3)c(-c3ccccc3)nn12 [Compound 320, 5-((1H-pyrazol-1-yl)methyl)-2,3-diphenyl-6-(quinolin-6-yl)pyrazolo[1,5-a]pyrimidin-7(4H)-one] | 0.1 to 1
8 | COc1ccc(-c2c(Nc3ncns3)[nH]c3c(C4=CCCCC4)c(-c4ccccc4)nn3c2=O)cc1 [Compound 166, 5-((1,2,4-thiadiazol-5-yl)amino)-3-(cyclohex-1-en-1-yl)-6-(4-methoxyphenyl)-2-phenylpyrazolo[1,5-a]pyrimidin-7(4H)-one] | < 0.1
9 | COc1ccc(-c2c(O)n(C)c3c(-c4ccccc4)c(-c4ccccc4)nn3c2=O)cc1 [Compound 274, 5-hydroxy-6-(4-methoxyphenyl)-4-methyl-2,3-diphenylpyrazolo[1,5-a]pyrimidin-7(4H)-one] | < 0.1
10 | O=C1CNC(=O)N1Cc1[nH]c2c(-c3ccccc3)c(-c3ccccc3)nn2c(=O)c1-c1ccc2ncccc2c1 [Compound 322, 3-((7-oxo-2,3-diphenyl-6-(quinolin-6-yl)-4,7-dihydropyrazolo[1,5-a]pyrimidin-5-yl)methyl)imidazolidine-2,4-dione] | 1 to 10
11 | COc1ccc(-c2c(C)[nH]c3c(N4CCC(F)(F)C4)c(-c4ccccc4)nn3c2=O)cc1 [Compound 272, 3-(3,3-difluoropyrrolidin-1-yl)-6-(4-methoxyphenyl)-5-methyl-2-phenylpyrazolo[1,5-a]pyrimidin-7(4H)-one] | < 0.1
12 | NCc1[nH]c2c(-c3ccccc3)c(-c3ccccc3)nn2c(=O)c1-c1ccc(O)cc1 [Compound 236, 5-(aminomethyl)-6-(4-hydroxyphenyl)-2,3-diphenylpyrazolo[1,5-a]pyrimidin-7(4H)-one] | < 0.1
13 | NCc1[nH]c2c(-c3ccccc3)c(-c3ccccc3)nn2c(=O)c1-c1ccc2c(c1)OCCO2 [Compound 223, 5-(aminomethyl)-6-(2,3-dihydrobenzo[b][1,4]dioxin-6-yl)-2,3-diphenylpyrazolo[1,5-a]pyrimidin-7(4H)-one] | < 0.1
14 | Cc1[nH]c2c(-c3ccccc3)c(-c3ccccc3)nn2c(=O)c1-c1ccc2ncncc2c1 [Compound 245, 5-methyl-2,3-diphenyl-6-(quinazolin-6-yl)pyrazolo[1,5-a]pyrimidin-7(4H)-one] | < 0.1
15 | CCC(=O)Nc1[nH]c2c(-c3ccccc3)c(-c3ccccc3)nn2c(=O)c1-c1ccc2ncccc2c1 [Compound 327, N-(7-oxo-2,3-diphenyl-6-(quinolin-6-yl)-4,7-dihydropyrazolo[1,5-a]pyrimidin-5-yl)propionamide] | 0.1 to 1
16 | COc1ccc(-c2c(Nc3ccn(COC(=O)[C@@H](N)C(C)C)n3)[nH]c3c(-c4ccccc4)c(-c4ccccc4)nn3c2=O)cc1 [Compound 201, (S)-(3-((6-(4-methoxyphenyl)-7-oxo-2,3-diphenyl-4,7-dihydropyrazolo[1,5-a]pyrimidin-5-yl)amino)-1H-pyrazol-1-yl)methyl 2-amino-3-methylbutanoate] | < 0.1
17 | O=C(NCc1[nH]c2c(-c3ccccc3)c(-c3ccccc3)nn2c(=O)c1-c1ccc2ncccc2c1)C(F)(F)F [Compound 263, 2,2,2-trifluoro-N-((7-oxo-2,3-diphenyl-6-(quinolin-6-yl)-4,7-dihydropyrazolo[1,5-a]pyrimidin-5-yl)methyl)acetamide] | < 0.1

Row | SMILES | IC50 [µM]
18 | O=c1c(-c2ccc3ncccc3c2)c(Nc2ccccn2)[nH]c2c(C3=CCCCC3)c(-c3ccccc3)nn12 [Compound 174, 3-cyclohexenyl-2-phenyl-5-(pyridin-2-ylamino)-6-(quinolin-6-yl)pyrazolo[1,5-a]pyrimidin-7(4H)-one] | < 0.1
19 | COc1ccc(-c2c(CN)[nH]c3c(C4=CCCCC4)c(-c4ccccc4)nn3c2=O)cc1 [Compound 232, 5-(aminomethyl)-3-(cyclohex-1-en-1-yl)-6-(4-methoxyphenyl)-2-phenylpyrazolo[1,5-a]pyrimidin-7(4H)-one] | < 0.1
20 | COc1ccc(-c2c(Nc3ccc(Cl)cn3)[nH]c3c(-c4ccccc4)c(-c4ccccc4)nn3c2=O)cc1 [Compound 106, 5-((5-chloropyridin-2-yl)amino)-6-(4-methoxyphenyl)-2,3-diphenylpyrazolo[1,5-a]pyrimidin-7(4H)-one] | < 0.1
21 | COc1ccc(-c2c(Nc3ccc(F)cn3)[nH]c3c(-c4ccccc4)c(-c4ccccc4)nn3c2=O)cc1 [Compound 105, 5-((5-fluoropyridin-2-yl)amino)-6-(4-methoxyphenyl)-2,3-diphenylpyrazolo[1,5-a]pyrimidin-7(4H)-one] | < 0.1
22 | Cc1[nH]c2c(N3CCCCC3)c(-c3ccccc3)nn2c(=O)c1-c1ccc2[nH]cnc2c1 [Compound 267, 6-(1H-benzo[d]imidazol-5-yl)-5-methyl-2-phenyl-3-(piperidin-1-yl)pyrazolo[1,5-a]pyrimidin-7(4H)-one] | < 0.1
23 | COc1ccc(-c2c(Nc3nccnc3N)[nH]c3c(-c4ccccc4)c(-c4ccccc4)nn3c2=O)cc1 [Compound 128, 5-((3-aminopyrazin-2-yl)amino)-6-(4-methoxyphenyl)-2,3-diphenylpyrazolo[1,5-a]pyrimidin-7(4H)-one] | < 0.1
24 | COc1ccc(-c2c(Nc3nncs3)[nH]c3c(C4=CCCCC4)c(-c4ccccc4)nn3c2=O)cc1 [Compound 167, 5-((1,3,4-thiadiazol-2-yl)amino)-3-(cyclohex-1-en-1-yl)-6-(4-methoxyphenyl)-2-phenylpyrazolo[1,5-a]pyrimidin-7(4H)-one] | < 0.1
25 | Cc1[nH]c2c(-c3ccccc3)c(-c3ccccc3)nn2c(=O)c1-c1ccc(O)c(OCCN(C)C)c1 [Compound 292, 6-(3-(2-(dimethylamino)ethoxy)-4-hydroxyphenyl)-5-methyl-2,3-diphenylpyrazolo[1,5-a]pyrimidin-7(4H)-one] | < 0.1
26 | Cc1[nH]c2c(-c3ccccc3)c(-c3ccccc3)nn2c(=O)c1-c1ccc2ncccc2c1 [Compound 204, 5-methyl-2,3-diphenyl-6-(quinolin-6-yl)pyrazolo[1,5-a]pyrimidin-7(4H)-one] | < 0.1
27 | O=c1c(-c2ccc3ncccc3c2)c[nH]c2c(-c3ccccc3)c(-c3ccccc3)nn12 [Compound 244, 2,3-diphenyl-6-(quinolin-6-yl)pyrazolo[1,5-a]pyrimidin-7(4H)-one] | < 0.1
28 | COc1ccc(-c2c(Nc3ncncn3)[nH]c3c(C4=CCCCC4)c(-c4ccccc4)nn3c2=O)cc1 [Compound 163, 5-((1,3,5-triazin-2-yl)amino)-3-(cyclohex-1-en-1-yl)-6-(4-methoxyphenyl)-2-phenylpyrazolo[1,5-a]pyrimidin-7(4H)-one] | < 0.1
29 | Cc1[nH]c2c(-c3ccccc3)c(-c3ccccc3)nn2c(=O)c1-c1ccc2nc(CN)sc2c1 [Compound 253, 6-(2-(aminomethyl)benzo[d]thiazol-6-yl)-5-methyl-2,3-diphenylpyrazolo[1,5-a]pyrimidin-7(4H)-one] | < 0.1
30 | COc1ccc(-c2c(C)[nH]c3c(N4CCCCC4)c(-c4ccccc4)nn3c2=O)cn1 [Compound 358, 6-(6-methoxypyridin-3-yl)-5-methyl-2-phenyl-3-(piperidin-1-yl)pyrazolo[1,5-a]pyrimidin-7(4H)-one] | < 0.1
31 | COc1ccc(-c2c(C)[nH]c3c(C4=CCCCC4)c(-c4ccccc4)nn3c2=O)cc1 [Compound 212, 3-(cyclohex-1-en-1-yl)-6-(4-methoxyphenyl)-5-methyl-2-phenylpyrazolo[1,5-a]pyrimidin-7(4H)-one] | < 0.1
32 | Cc1[nH]c2c(C3=CCCCC3)c(-c3ccccc3)nn2c(=O)c1-c1ccc2ncccc2c1 [Compound 216, 3-(cyclohex-1-en-1-yl)-5-methyl-2-phenyl-6-(quinolin-6-yl)pyrazolo[1,5-a]pyrimidin-7(4H)-one] | < 0.1
33 | Cc1[nH]c2c(N3CCCCC3)c(-c3ccccc3)nn2c(=O)c1C1CC1 [Compound 298, 6-cyclopropyl-5-methyl-2-phenyl-3-(piperidin-1-yl)pyrazolo[1,5-a]pyrimidin-7(4H)-one] | 0.1 to 1
